In patent publication US12522614B2, “Topical phosphoinositide 3-kinase inhibitors” (VENTHERA, INC., priority 2019, dated 2026):

Experiments:
[1] = Stability study of Compound 1.002 as API (HPLC assay); format: physicochemical
From the text: The stability of three lots of Compound 1.002 as Active Pharmaceutical Ingredient (API) was studied for a period of 12 months.

[2] = In vitro human skin permeation study of topical gel formulations (Franz diffusion cells); format: in vitro ADME; settings: Study-1, Example 8 gel, human skin
From the text: The gel formulation of Example 8 was used as the donor phase to determine the permeation of Compound 1.002 through human skin and its effectiveness as a topical application. Three skin donors and three diffusion cells (for each donor) per formulation were used in the in vitro skin permeation experiments. Split thickness dermatomed (approximately at […] thickness) human cadaver skin, supplied by New York Firefighters Skin Bank, NY, was used to determine the permeation rate of the tested compound (i.e., the drug) in vitro. All in vitro skin permeation studies were conducted using the Vertical Diffusion Cells assembly with consoles (Model FDC-6), and heating controllers (Logan Instruments Inc. Somerset, NJ). Each assembly consisted of six vertical, jacketed (37° C.±0.5° C.) 12-mL Franz diffusion cells with magnetic stirrer and 1.767 cm^2 diffusion area.
Skin flux studies were run for a period of 48 hours. At predetermined intervals (2, 4, 8, 24 and 48 hours) after starting the experiment, the entire contents of the receiver compartment were collected for determining concentrations of the drug by HPLC. The receiver compartment was refilled with fresh receiver medium. The receiver medium was pH 7.4 phosphate buffer with 0.5 mg/ml of Oleath 20 with the saturation concentration of the drug in the receptor medium being 0.152 mg/ml. This solubility of the drug in the receiver medium was enough to ensure sink conditions throughout each collection interval.
Samples of the receptor phase were obtained at 2, 4, 8, 12, 24 and 48 h and concentrations of Compound 1.002 and 3-(4-morpholinothieno(3,2-d)pyrimidin-2-yl)phenol (metabolite of Compound 1.002, abbreviated as MTPP) were determined using a validated HPLC method. The metabolism of Compound 1.002 to MTPP takes place in the human skin by esterase enzymes.
HPLC method: Column—Gemini C-18 4.6×150 mm, 5 μm particle size; Mobile Phase—water:acetonitrile 25:75 containing 0.1% TFA; Flow Rate—1 mL/min; Detection—274 nm; Column Temperature—40° C.; and Run Time—10 min. The retention times for MTPP and Compound 1.002 were 3.9 and 7.2 minutes, respectively.
The skin flux of drugs and cumulative amount of drugs permeated (sum of MTPP and Compound 1.002) for a period of 48 hours were calculated and are shown in Table 3. FIG. 3 represents a plot of Cumulative amount permeated versus time.

[3] = Accelerated stability study of topical gel formulations at 80° C.; format: physicochemical; settings: gel formulation (Table 2 excipients), 80° C.
Procedure: Topical gel formulations were prepared using excipients as shown in Table 2 according to Example 8, in which Compounds 1.002, 1.012, and 1.006 were used as the active ingredient, respectively. These gel formulations were subjected to stability study at 80° C. for 10 days. Stability under the condition of at 80° C. for 10 days is expected to be approximately equivalent to the stability for three (3) years at room temperature. A relative purity of the tested compound after being exposed for 5 days and 10 days at 80° C. was determined by HPLC, as compared to its initial purity (at day 0).
The values shown in the table are percent hydrolysis of the respective compounds to the parent compound MTPP.
Topical gel formulations of Compound 1.002 were prepared using excipients as shown in Table 2 according to Example 8, in which the content of oleic acid varied at 1%, 2%, 5%, and 10%, respectively. These gel formulations were subjected to stability study at 80° C. for 10 days, which is expected to be approximately equivalent to the stability for three (3) years at room temperature. A purity of the tested compound on day 0, 5, 7, and 10 at 80° C. was determined by HPLC. The detected impurity of the tested compound appears to be the hydrolysis product, as MTPP. Table 17 represents stability data of Compound 1.002 in topical formulations having oleic acid at various contents.
Gel formulations of Example 17 were subjected to stability study at 80° C. for 10 days. Stability under the condition of at 80° C. for 10 days is expected to be approximately equivalent to the stability for three (3) years at room temperature. A relative purity of Compound 1.002 after being exposed for 5 days and 10 days at 80° C. was determined by HPLC, as compared to its initial purity (at day 0).

[4] = Viscosity of topical formulation as prepared; format: physicochemical; settings: gel formulation of Example 8 (Table 2)
Procedure: The liquid excipients, i.e. DMSO, oleic acid, Transcutol® P, and dipropylene glycol were mixed in a 20-mL vial, by vortex agitation. The active ingredient, a compound of formula (I), for example Compound 1.002 was then added, and the vial content was sonicated for 10 minutes to dissolve the compound. […] Hydroxylpropyl cellulose (HPC) was added, and the vial was agitated by vortex for another ten minutes to obtain the gel formulation. The viscosity of the clear gel was measured to be in a range of about 7,000 to 10,000 centipoise (cp).
A solution formulation was prepared, similar to the gel formulations as described in Example 8, without a thickening agent. The viscosity of the solution was 13.4 cp and it can be used as a topical spray or lotion.

- Compound 1.002 Purity by a HPLC Assay Method ([1]; Lot-1, 25° C./60% RH, 0 months): 99.5%
- Compound 1.002 Purity by a HPLC Assay Method ([1]; Lot-1, 25° C./60% RH, 3 months): 99.4%
- Compound 1.002 Purity by a HPLC Assay Method ([1]; Lot-1, 25° C./60% RH, 6 months): 99.6%
- Compound 1.002 Purity by a HPLC Assay Method ([1]; Lot-1, 25° C./60% RH, 9 months): 99.8%
- Compound 1.002 Purity by a HPLC Assay Method ([1]; Lot-1, 25° C./60% RH, 12 months): 99.9%
- Compound 1.002 Purity by a HPLC Assay Method ([1]; Lot-1, 40° C./75% RH, 0 months): 99.5%
- Compound 1.002 Purity by a HPLC Assay Method ([1]; Lot-1, 40° C./75% RH, 3 months): 99.2%
- Compound 1.002 Purity by a HPLC Assay Method ([1]; Lot-1, 40° C./75% RH, 6 months): 99.5%
- Compound 1.002 Purity by a HPLC Assay Method ([1]; Lot-2, 40° C./75% RH, 0 months): 99.4%
- Compound 1.002 Purity by a HPLC Assay Method ([1]; Lot-2, 40° C./75% RH, 1 month): 100.0%
- Compound 1.002 Purity by a HPLC Assay Method ([1]; Lot-2, 40° C./75% RH, 2 months): 99.3%
- Compound 1.002 Purity by a HPLC Assay Method ([1]; Lot-2, 40° C./75% RH, 3 months): 97.9%
- Compound 1.002 Purity by a HPLC Assay Method ([1]; Lot-2, 40° C./75% RH, 6 months): 100.0%
- Compound 1.002 Purity by a HPLC Assay Method ([1]; Lot-3, 40° C./75% RH, 0 months): 100.0%
- Compound 1.002 Purity by a HPLC Assay Method ([1]; Lot-3, 40° C./75% RH, 1 month): 100.0%
- Compound 1.002 Purity by a HPLC Assay Method ([1]; Lot-3, 40° C./75% RH, 2 months): 100.0%
- Compound 1.002 Purity by a HPLC Assay Method ([1]; Lot-3, 40° C./75% RH, 3 months): 98.9%
- Compound 1.002 Purity by a HPLC Assay Method ([1]; Lot-3, 40° C./75% RH, 6 months): 100.0%
- Hydrolysis of Cmpd. 1.002 to MTPP ([2]; Donor 2, 4 h): 100%
- Cumulative permeation, Cmpd. 1.002 ([2]; Donor 3, 2 h): 0.00 μg/cm^2
- Relative Purity ([3]; Day 0): 100%
- Relative Purity ([3]; Day 5): 96%
- Relative Purity ([3]; Day 10): 94%
- Viscosity of the clear gel [4]: 7,000 to 10,000 centipoise (cp)
Compound: CC(=O)Oc1cccc(-c2nc(N3CCOCC3)c3sccc3n2)c1 [Compound 1.002, 3-(4-Morpholinothieno[3,2-d]pyrimidin-2-yl)phenyl Acetate]
